We go through 15 compounds from US12187719B2, “Proteolysis targeting chimera (PROTACS) as degraders of SMARCA2 and /or SMARCA4” (Boehringer Ingelheim International GmbH, priority 2018, dated 2025).

For experiment [1], the target named is T1, SMARCA4 (Homo sapiens, UniProt P51532).
T1 construct: endogenous in cells; host or cells: A549 (NSCLC) cells with SMARCA4 mutation corrected to wild type
The experiment in a line: Protein degradation assay in A549 cells, SMARCA4 levels by WES capillary electrophoresis. Particulars: A549 (NSCLC) cells with SMARCA4 mutation corrected to wild type, 18 h incubation; for DC50: concentration at which half maximal degradation is achieved, normalised to GAPDH; for Dmax: maximal amount of degraded protein relative to initial levels. In kind it is cell-based. The procedure: (§1) For the protein degradation assay, A549 (NSCLC) cells are used in which the inactivating SMARCA4 mutation has been corrected to wild type, such that the cells express both SMARCA2 and SMARCA4. 35000 cells in F12K Medium +10% FBS (100 μL/well) are seeded in a Greiner 96 well F-bottom plate and incubated at 37° C. overnight. Compounds are added from DMSO stock solution using ECHO Access™ workstation or HP D300 Digital Dispenser and cells are incubated at 37° C. for 18 h. Medium is removed, cells are washed with PBS, PBS is removed and 30 μL cold Lysis Buffer (1% Triton, 350 mM KCl, 10 mM Tris, Halt Phosphatase-Protease Inhibitors, 10 mM DTT, Benzonase 0.5 μL/mL) is added to each well. Cells are lysed for 20 min at 4° C. on a bioshake at 800 rpm before insoluble debris is pelleted by centrifugation for 20 min at 4000 rpm at 4° C. The supernatant is transferred to a fresh PCR plate. SMARCA2 levels are determined on a WES capillary electrophoresis instrument (Proteinsimple) using rabbit anti-SMARCA2 antibody (1:25, Sigma #HPA029981), SMARCA4 antibody (CellSignaling #49360, 1:25), PBRM1 antibody (Bethyl #A301-591A-M, 1:40) and anti-GAPDH antibody (1:100, Abcam #ab9485) for normalization.
The Dmax represents the efficiency of degradation and gives the maximal amount of degraded protein relative to initial levels.

Experiment [2] deals with T2, SMARCA2 (Homo sapiens, UniProt P51531).
T2 construct: such that the cells express both SMARCA2 and SMARCA4; endogenous in cells; host or cells: A549 (NSCLC) cells with SMARCA4 mutation corrected to wild type
T2 sequence (P51531 whole entry): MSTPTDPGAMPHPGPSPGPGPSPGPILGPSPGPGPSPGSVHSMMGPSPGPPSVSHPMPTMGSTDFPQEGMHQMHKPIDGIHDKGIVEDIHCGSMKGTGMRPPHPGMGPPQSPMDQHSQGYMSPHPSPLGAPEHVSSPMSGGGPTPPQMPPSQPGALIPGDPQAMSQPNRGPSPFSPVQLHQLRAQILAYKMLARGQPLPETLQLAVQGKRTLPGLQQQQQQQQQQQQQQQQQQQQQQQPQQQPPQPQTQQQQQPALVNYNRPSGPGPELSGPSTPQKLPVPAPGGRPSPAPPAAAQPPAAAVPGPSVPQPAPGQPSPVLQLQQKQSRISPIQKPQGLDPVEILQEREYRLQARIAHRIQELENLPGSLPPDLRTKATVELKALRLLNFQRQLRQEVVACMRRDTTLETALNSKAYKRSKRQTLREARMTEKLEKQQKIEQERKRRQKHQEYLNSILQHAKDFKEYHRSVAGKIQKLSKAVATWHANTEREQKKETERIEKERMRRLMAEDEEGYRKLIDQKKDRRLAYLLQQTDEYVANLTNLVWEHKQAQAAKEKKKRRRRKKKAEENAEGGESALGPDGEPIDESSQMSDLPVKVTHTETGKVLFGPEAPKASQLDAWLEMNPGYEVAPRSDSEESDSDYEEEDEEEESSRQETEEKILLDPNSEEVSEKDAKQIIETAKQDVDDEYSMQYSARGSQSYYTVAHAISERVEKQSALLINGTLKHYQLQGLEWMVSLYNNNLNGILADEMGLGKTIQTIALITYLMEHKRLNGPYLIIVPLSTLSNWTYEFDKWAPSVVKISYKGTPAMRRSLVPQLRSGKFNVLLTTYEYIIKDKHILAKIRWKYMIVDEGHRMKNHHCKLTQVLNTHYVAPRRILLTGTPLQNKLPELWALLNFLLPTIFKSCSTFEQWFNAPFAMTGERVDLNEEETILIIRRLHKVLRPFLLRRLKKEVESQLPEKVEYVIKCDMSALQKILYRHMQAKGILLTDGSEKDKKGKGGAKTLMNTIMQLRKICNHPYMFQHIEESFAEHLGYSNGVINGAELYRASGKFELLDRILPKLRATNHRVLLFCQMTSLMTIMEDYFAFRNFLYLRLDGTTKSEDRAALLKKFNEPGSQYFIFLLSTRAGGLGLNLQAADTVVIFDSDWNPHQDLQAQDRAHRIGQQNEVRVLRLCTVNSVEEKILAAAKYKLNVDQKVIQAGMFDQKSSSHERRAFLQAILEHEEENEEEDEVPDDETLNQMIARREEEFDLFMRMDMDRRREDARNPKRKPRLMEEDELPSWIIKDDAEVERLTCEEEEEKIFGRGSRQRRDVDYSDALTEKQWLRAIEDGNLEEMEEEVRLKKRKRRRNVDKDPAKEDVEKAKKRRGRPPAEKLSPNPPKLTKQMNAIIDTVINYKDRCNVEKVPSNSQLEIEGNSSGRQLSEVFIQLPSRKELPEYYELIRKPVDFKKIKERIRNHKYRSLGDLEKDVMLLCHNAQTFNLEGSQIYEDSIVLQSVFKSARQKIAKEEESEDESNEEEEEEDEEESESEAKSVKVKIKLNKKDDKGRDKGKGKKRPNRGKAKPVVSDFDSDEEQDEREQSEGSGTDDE
Put plainly: Protein degradation assay in A549 cells, SMARCA2 levels by WES capillary electrophoresis. In kind it is cell-based. Particulars: A549 (NSCLC) cells with SMARCA4 mutation corrected to wild type, 18 h incubation; for DC50: concentration at which half maximal degradation is achieved, normalised to GAPDH; for Dmax: maximal amount of degraded protein relative to initial levels. The procedure:
as §1
The compounds 1-1 to 1-18 according to the invention have been tested in the above described assay. The majority of the compounds show degradation of SMARCA2 and SMARCA4 protein in A549 cells with DC50 in the range of 10-1000 nM (i.e. compound concentration at which half maximal degradation is achieved). The Dmax represents the efficiency of degradation and gives the maximal amount of degraded protein relative to initial levels. The majority of the compounds reach degradation levels >80%.

T1 sequence (P51532 whole entry): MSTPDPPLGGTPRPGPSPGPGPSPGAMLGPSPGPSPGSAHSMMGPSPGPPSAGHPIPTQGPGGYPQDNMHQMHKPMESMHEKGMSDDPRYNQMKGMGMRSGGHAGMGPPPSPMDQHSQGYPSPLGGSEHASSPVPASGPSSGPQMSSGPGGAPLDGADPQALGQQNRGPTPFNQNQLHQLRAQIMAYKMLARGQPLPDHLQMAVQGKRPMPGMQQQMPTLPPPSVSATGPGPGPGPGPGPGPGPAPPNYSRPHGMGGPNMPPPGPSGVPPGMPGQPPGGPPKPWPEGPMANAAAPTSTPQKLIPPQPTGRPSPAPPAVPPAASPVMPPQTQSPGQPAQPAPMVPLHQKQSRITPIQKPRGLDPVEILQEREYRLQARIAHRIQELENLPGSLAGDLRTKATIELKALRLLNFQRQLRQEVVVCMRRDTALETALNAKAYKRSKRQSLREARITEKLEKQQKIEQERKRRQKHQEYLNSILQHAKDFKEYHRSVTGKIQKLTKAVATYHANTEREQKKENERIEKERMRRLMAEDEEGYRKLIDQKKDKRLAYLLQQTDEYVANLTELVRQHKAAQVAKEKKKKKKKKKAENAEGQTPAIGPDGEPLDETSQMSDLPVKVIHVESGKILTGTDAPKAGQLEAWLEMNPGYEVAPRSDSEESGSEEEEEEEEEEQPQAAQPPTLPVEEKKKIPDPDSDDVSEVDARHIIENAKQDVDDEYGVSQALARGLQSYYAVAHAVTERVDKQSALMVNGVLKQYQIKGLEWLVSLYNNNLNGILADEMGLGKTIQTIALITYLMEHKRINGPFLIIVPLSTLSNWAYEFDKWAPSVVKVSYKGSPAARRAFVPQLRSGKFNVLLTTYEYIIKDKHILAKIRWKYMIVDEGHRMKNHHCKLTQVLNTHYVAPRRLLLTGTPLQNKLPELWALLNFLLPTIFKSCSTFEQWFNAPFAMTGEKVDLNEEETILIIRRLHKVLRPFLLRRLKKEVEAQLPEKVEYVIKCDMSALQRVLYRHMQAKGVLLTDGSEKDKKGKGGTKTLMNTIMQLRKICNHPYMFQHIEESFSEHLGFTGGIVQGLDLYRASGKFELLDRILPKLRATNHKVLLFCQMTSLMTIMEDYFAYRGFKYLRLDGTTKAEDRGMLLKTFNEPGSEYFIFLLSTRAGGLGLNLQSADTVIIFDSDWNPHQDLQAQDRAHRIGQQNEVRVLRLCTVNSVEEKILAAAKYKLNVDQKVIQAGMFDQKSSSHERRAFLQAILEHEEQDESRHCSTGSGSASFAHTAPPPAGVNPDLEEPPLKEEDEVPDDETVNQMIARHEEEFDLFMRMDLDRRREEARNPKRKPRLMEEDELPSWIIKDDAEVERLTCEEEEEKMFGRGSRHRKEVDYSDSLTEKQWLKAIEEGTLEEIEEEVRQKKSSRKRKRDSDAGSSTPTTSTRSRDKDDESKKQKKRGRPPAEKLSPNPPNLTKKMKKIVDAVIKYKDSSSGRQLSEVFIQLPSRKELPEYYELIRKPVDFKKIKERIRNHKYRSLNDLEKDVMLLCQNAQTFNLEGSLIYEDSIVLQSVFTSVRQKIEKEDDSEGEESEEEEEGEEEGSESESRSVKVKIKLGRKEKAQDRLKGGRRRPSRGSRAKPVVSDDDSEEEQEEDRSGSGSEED

In experiment [1], `Cc1ncsc1-c1ccc(CNC(=O)[C@@H]2C[C@@H](O)CN2C(=O)[C@@H](NC(=O)C2(F)CC2)C(C)(C)C)c(OCCc2ccc(OCCN3CCN(c4cc(-c5ccccc5O)nnc4N)CC3)cc2)c1` [Compound I-10] yielded a DC50 of 26 nM and a maximal degradation (Dmax) of 99%. In experiment [2], the DC50 was found to be 41 nM and the greatest degradation seen (Dmax) came to 99%.

In experiment [2], `Cc1ncsc1-c1ccc(CNC(=O)[C@@H]2C[C@@H](O)CN2C(=O)[C@@H](NC(=O)C2(F)CC2)C(C)(C)C)c(OCc2ccc(CCN3CCN(c4cc(-c5ccccc5O)nnc4N)CC3)cc2)c1` [Compound I-12] yielded a 50% degradation concentration (DC50) of around 1000 nM and a Dmax of 40%.

In the case of `Cc1ncsc1-c1ccc(CNC(=O)[C@@H]2C[C@@H](O)CN2C(=O)[C@@H](NC(=O)C2(F)CC2)C(C)(C)C)c(OCCCCOc2ccc(CN3CCN(c4cc(-c5ccccc5O)nnc4N)CC3)cc2)c1` [Compound I-9], the half-maximal degradation concentration (DC50) came out at 170 nM in experiment [1] and 236 nM in experiment [2]. In addition, the figures for the Dmax in experiment [1] and in experiment [2] were 83% and 85%, respectively.

Regarding `Cc1ncsc1-c1ccc(CNC(=O)[C@@H]2C[C@@H](O)CN2C(=O)[C@@H](NC(=O)C2(F)CC2)C(C)(C)C)c(OCCOc2ccc(CN3CCN(c4cc(-c5ccccc5O)nnc4N)CC3)cc2)c1` [Compound I-7], in experiment [1], half-maximal degradation (DC50) was put at 16 nM and the Dmax turned out to be 97%. In experiment [2], this compound displayed a 50% degradation concentration (DC50) of 12 nM and a maximal degradation (Dmax) of 98%.

In experiment [1], `Cc1ncsc1-c1ccc(CNC(=O)[C@@H]2C[C@@H](O)CN2C(=O)[C@@H](NC(=O)C2(F)CC2)C(C)(C)C)c(OCCc2cccc(CN3CCN(c4cc(-c5ccccc5O)nnc4N)CC3)c2)c1` [Compound I-13] had a DC50 of 634 nM and a Dmax of 97%. In experiment [2], this compound yielded a DC50 of 189 nM and a maximal degradation (Dmax) of 88%.

On to `Cc1ncsc1-c1ccc(CNC(=O)[C@@H]2C[C@@H](O)CN2C(=O)[C@@H](NC(=O)C2(F)CC2)C(C)(C)C)c(OCCCc2ccc(CN3CCN(c4cc(-c5ccccc5O)nnc4N)CC3)cc2)c1` [Compound I-14], for which, in experiment [1], the half-maximal degradation concentration (DC50) is 25 nM and the Dmax is 92%. In experiment [2], this compound came in with a 50% degradation concentration (DC50) of 58 nM and a Dmax of 90%.

With `Cc1ncsc1-c1ccc(CNC(=O)[C@@H]2C[C@@H](O)CN2C(=O)[C@@H](NC(=O)C2(F)CC2)C(C)(C)C)c(OCCOCCOCCN2CCN(c3cc(-c4ccccc4O)nnc3N)CC2)c1` [Compound I-5], in experiment [1], the Dmax turned out to be 84%. In experiment [2], this compound returned a DC50 of 2540 nM and a Dmax of 89%.

Turning to `Cc1ncsc1-c1ccc(CNC(=O)[C@@H]2C[C@@H](O)CN2C(=O)[C@@H](NC(=O)C2(F)CC2)C(C)(C)C)c(OCCCCOCCN2CCN(c3cc(-c4ccccc4O)nnc3N)CC2)c1` [Compound I-4], in experiment [1], the DC50 amounted to 735 nM and the Dmax turned out to be 87%. In experiment [2], this compound gave a DC50 of 1000 nM and a Dmax of 70%.

As for `Cc1ncsc1-c1ccc(CNC(=O)[C@@H]2C[C@@H](O)CN2C(=O)[C@@H](NC(=O)C2(F)CC2)C(C)(C)C)c(OCCCCCCCN2CCN(c3cc(-c4ccccc4O)nnc3N)CC2)c1` [Compound I-1], in experiment [1], half-maximal degradation (DC50) was put at 1240 nM and the Dmax worked out at 70%. In experiment [2], this compound came in with a DC50 of 450 nM and a Dmax of 45%.

Consider `Cc1ncsc1-c1ccc(CNC(=O)[C@@H]2C[C@@H](O)CN2C(=O)[C@@H](NC(=O)C2(F)CC2)C(C)(C)C)c(OCCc2ccc(C(=O)N3CCN(c4cc(-c5ccccc5O)nnc4N)CC3)cc2)c1` [Compound I-18], for which, in experiment [1], the 50% degradation concentration (DC50) is 188 nM and the maximal degradation (Dmax) came to 81%. In experiment [2], this compound returned a 50% degradation concentration (DC50) of 525 nM and a Dmax of 98%.

In the case of `Cc1ncsc1-c1ccc(CNC(=O)[C@@H]2C[C@@H](O)CN2C(=O)[C@@H](NC(=O)C2(F)CC2)C(C)(C)C)c(OCCc2ccc(CN3CCN(c4cc(-c5ccccc5O)nnc4N)CC3)cc2)c1` [Compound I-2], in experiment [1], it took 117 nM to reach half-maximal degradation (DC50) and the Dmax stood at 93%. Also, in experiment [2], half-maximal degradation (DC50) was put at 67 nM and the Dmax is 91%.

In experiment [1], `Cc1ncsc1-c1ccc(CNC(=O)[C@@H]2C[C@@H](O)CN2C(=O)[C@@H](NC(=O)C2(F)CC2)C(C)(C)C)c(OCCCOCCN2CCN(c3cc(-c4ccccc4O)nnc3N)CC2)c1` [Compound I-3] showed a DC50 of 2040 nM and a maximal degradation (Dmax) of 100%.

Regarding `Cc1ncsc1-c1ccc(CNC(=O)[C@@H]2C[C@@H](O)CN2C(=O)[C@@H](NC(=O)C2(F)CC2)C(C)(C)C)c(OCCCCCCCOCCN2CCN(c3cc(-c4ccccc4O)nnc3N)CC2)c1` [Compound I-6], the DC50 in experiment [1] is 219 nM; in experiment [2], 172 nM. Besides, the Dmax in experiment [1] came out at 89%; in experiment [2], 83%.

`Cc1ncsc1-c1ccc(CNC(=O)[C@@H]2C[C@@H](O)CN2C(=O)[C@@H](NC(=O)C2(F)CC2)C(C)(C)C)c(OCc2ccc(CN3CCN(c4cc(-c5ccccc5O)nnc4N)CC3)cc2)c1` [Compound I-8]: in experiment [1], the DC50 worked out at 168 nM and the Dmax was found to be 59%. Moreover, in experiment [2], the DC50 was determined as 56 nM and the Dmax came to 88%.

As to `Cc1ncsc1-c1ccc(CNC(=O)[C@@H]2C[C@@H](O)CN2C(=O)[C@@H](NC(=O)C2(F)CC2)C(C)(C)C)c(OCCCOc2ccc(CN3CCN(c4cc(-c5ccccc5O)nnc4N)CC3)cc2)c1` [Compound I-11], in experiment [1], half-maximal degradation (DC50) was put at 16 nM and the Dmax came to 100%. Also, in experiment [2], the DC50 was 26 nM and the greatest degradation seen (Dmax) turned out to be 99%.

Usually DC50 stands for the concentration giving 50% degradation. In general, Dmax refers to the largest share of the target that was removed. A low value points to shallow degradation.
